Reference: paper PMC9983021, “Novel GluN2B-Selective NMDA Receptor Negative Allosteric Modulator Possesses Intrinsic Analgesic Properties and Enhances Analgesia of Morphine in a Rodent Tail Flick Pain Model” (ACS Chemical Neuroscience, 2023)

How the values were obtained:
C57BL/6J mice [1] = test: Hot water tail immersion test, compound alone (intrinsic antinociception); assay type: in vivo; details: for dose at which significant increase in latency was achieved / dose at which significant latency increases were achieved: i.p.; for effect on tail flick latency vs vehicle / mean latency increase: i.p. 30 min prior to test; for effect on tail flick latency vs vehicle: n = 8 per group; for dose at which significant latency increases were achieved: lowest significant dose
Excerpt: After evaluating EU93-108 in vitro, we next evaluated a panel of GluN2B inhibitors for their ability to produce an antinociceptive effect using a classical model of pain perception, determination of tail flick latency for mice when their tails are placed in hot water (Figures 4 and 5). The hot water tail immersion test is a well-validated method of assessing reflexive (i.e., spinal) pain-like response in rodents.[80]−[83] We interpret a drug-induced increase in tail flick latency as analgesia.
The inhibitors were injected i.p. 30 min prior to a hot water tail immersion test. Four treatment groups and one control group were used (n = 8 per group) where the control group received vehicle (10% DMSO, 20% PEG, 2% DMA in water) and groups 1 through 4 were randomly assigned one dose of the appropriate compound.
All animal studies performed at Emory have been approved by the Institutional Animal Care and Use Committee at Emory University. Male and female C57BL/6J mice weighing between 20 and 30 g were housed five per cage and given ad libitum access to food and water. The mice were 8–10 weeks of age at the time of experimentation. Animal holding rooms operated on a 12 h dark/light cycle with the dark cycle from 7:00 pm to 7:00 am. Mice were allowed to acclimate in cages for one week after arrival. The mice were handled regularly and habituated to scruffing and cloth restraint for 3–5 days prior to experimentation.
Mouse weights were recorded on the day of each experiment. Mice were given the appropriate treatment(s) 30 min prior to testing. All injection volumes were 10 mL/kg (e.g., 350 μL for a 35 g mouse). For the tail immersion experiments, each mouse was restrained with a Wypall cloth, leaving the tail exposed. The distal two-thirds of the tail was lowered into a sous vide water bath set to 48 °C, and a stopwatch with a resolution of 0.01 s was used to record the time elapsed between immersion and tail flick. Three recordings were taken for each mouse, and each data point is expressed as the mean of the three recordings. A cut-off time of 25 s was implemented to prevent tissue damage or scarring. For each experiment, the identities of the doses were coded by an independent researcher to ensure blinding. The identities were not decoded until the data were analyzed.
(§1) Prism 9.3.1 software (GraphPad, San Diego, CA) was used for all data analysis and visualization. Data for intrinsic antinociception was analyzed using one-way ANOVA and Dunnett’s post hoc test for multiple comparisons where each group was compared to vehicle. Data for acute morphine potentiation experiments were analyzed using one-way ANOVA and Tukey’s post hoc test for multiple comparisons was also used, where each group mean was compared to the mean of every other group. Data for tolerance experiments were analyzed using repeated measures two-way ANOVA and Bonferroni post hoc analysis. Data are presented as mean ± SEM and p < 0.05 constitutes significance.

C57BL/6J mice [2] = test: Preestablished morphine tolerance (tolerant mice, tail immersion test); assay type: in vivo; details: co-administered with morphine; males 10 mg/kg, females 20 mg/kg i.p.
Excerpt: We next wanted to assess EU93-108 for effects on other facets of tolerance. Specifically, we were interested in whether EU93-108 could increase tail flick latency in mice that were already tolerant to morphine (i.e., preestablished tolerance). To assess the effect of EU93-108 on preestablished tolerance, five groups were used (n = 8 per group): vehicle/saline, vehicle/morphine, ifenprodil/morphine, EU93-108/saline, and EU93-108/morphine. All groups except for the vehicle/saline control group were administered morphine three times per day (according to the stair stepping protocol outlined in Figure 11) at gradually increasing doses from 25 to 40 mg/kg three times a day at 3–4 h intervals for three consecutive days until tolerance was observed on day 4 (Figure 12, black circles).
Figure 11 Dosing regimen to assess effects of EU93-108 on tolerant mice. TIT = tail immersion test. All mice received morphine or saline three times a day according to the protocol in Figure 9. Doses of morphine are shown above the arrows, in mg/kg. Once tolerance was established on day 4, the mice were randomly assigned to receive vehicle, EU93-108, or ifenprodil once a day for two consecutive days. […]
Mouse weights were recorded on the day of each experiment. […] Three recordings were taken for each mouse, and each data point is expressed as the mean of the three recordings. […] The identities were not decoded until the data were analyzed.
as §1, with “Data are presented as mean ± SEM and p < 0.05 constitutes significance.” left out

SMILES | dose at which significant increase in latency was achieved (C57BL/6J mice [1]; female mice) [mg/kg] | effect on tail flick latency vs vehicle (C57BL/6J mice [1]; female mice) | mean latency increase (C57BL/6J mice [1]; male mice) [s] | effect on tail flick latency vs vehicle (C57BL/6J mice [1]; male mice) | dose at which significant latency increases were achieved (C57BL/6J mice [1]; male mice) [mg/kg] | ED50 (C57BL/6J mice [1]; Mus musculus, sc, 0.5 h, read-out: ED50 (tail flick latency), morphine dose-response curve) [mg/kg] | tail flick latency in morphine-tolerant mice, day 5 vs day 4 (C57BL/6J mice [2])
CS(=O)(=O)Nc1ccc(OC[C@@H](O)CNCCc2ccc(Cl)c(Cl)c2)cc1 [EU93-4] | 50 | significant increases in latency at the highest doses tested | 10 | significant increases in tail flick latency at 50 mg/kg | 50 |  | 
CN1CC[C@]23c4c5ccc(O)c4O[C@H]2[C@@H](O)C=C[C@H]3[C@H]1C5 [Morphine] |  |  |  |  |  | 5.15 | 
CC(C(O)c1ccc(O)cc1)N1CCC(Cc2ccccc2)CC1 (stereo not shown) [ifenprodil, reference compound] |  | did not produce any significant increases in latency at the doses tested |  | did not display significant increases in latency at the doses tested |  |  | continued to decrease on day 5
CCCCN(CCc1ccc(Cl)c(Cl)c1)C[C@H](O)COc1ccc(NS(C)(=O)=O)cc1 [EU93-31] | 100 | significant increases in latency at the highest doses tested | 10 | significant increases in latency at the two highest doses tested (50 and 100 mg/kg) | 50 |  | 
C[C@H](CN1CCC(Cc2ccccc2)CC1)[C@H](O)c1ccc(O)cc1 [Ro25-6981, reference compound] |  | did not produce any significant increases in latency at the doses tested |  | did not display significant increases in latency at the doses tested |  |  | 
